Data from patent US11378570B2, “Cytotoxicity test method for medical devices” (Alcon Inc., priority 2017, dated 2022).

System: Mouse lymphoma TK cells
Assay: TK suspension cell assay, treatment with dilutions of BAK and ZDBC
Format: cell-based
Details: 72±2 hours; for dose dependence of the decrease in cell growth: serial dilutions, 5% or 10% FBS
Procedure: For each test material, data were collected and the mean and SD were calculated using Excel. The IC50 was calculated using SigmaPlot. Determination of cytotoxicity and test acceptance criteria followed those described in JMHLW and ISO 10993-5: The relative colony-forming rate/relative growth rate of positive control (reference material B) should be equal or less than 10%, and negative control (Wako disk) should be equal or greater than 80%.
Relative cell growth rate (%)=[100×(Test cell concentration at time 72 hours−mean of blank cell concentration at time 0)÷(mean of blank cell concentration at time 72 hours−mean of blank cell concentration at time 0)]. The results are expressed as the mean±standard deviation (SD) from three independent studies and each study has six replicates for each lens.
Phosphate buffer (Cat. #SH30028.02, HyClone, Logan, Utah) was used for dilutions of BAK (1.25, 2.5, 5, 10, 25, and 50 parts per million) (Cat. #B1068, Spectrum Chemical, New Brunswick, N.J.). A total of 900 μL of 2.2×10^4 cells/mL TK cells in assay medium (RPMIFBS10 or RPMIFBS05) were seeded in a 24-well plate and then treated with different dilutions of BAK (100 μL) to achieve final concentrations of 0.125, 0.25, 0.5, 1.0, 2.5, and 5 ppm. Phosphate buffer (100 μL)-treated cells served as a blank control, reference material B (diameter (ϕ): 14 mm) as a positive control, and Wako tissue culture plastic disk served a negative control. After 72±2 hours incubation, 600 μL cells were mixed and transferred into the counter vial. The relative cell growth rate was determined and calculated as described above. The results are expressed as the mean±SD based on three replicates.
DMSO was used to dissolve ZDBC powder (Cat. #Z1031, Spectrum Chemical, New Brunswick, N.J.) to make […], 0.1, 0.2, 0.4, 0.8, and 2 mg/mL dilutions. Next, 995 μL of 2.0×10^4 cells/mL TK cells in assay medium (either RPMIFBS10 or RPMIFBS05) were seeded in a 24-well plate and treated with 5 μL of different ZDBC dilutions to achieve final concentrations of 0.25, 0.5, 1, 2, 4, and 10 μg/mL. DMSO (5 μL)-treated cells served as a blank control, reference material B (diameter (ϕ): 14 mm) as a positive control, and Wako tissue culture plastic disk served a negative control. After 72±2 hours incubation, 600 μL cells were mixed and transferred into the counter vial. The relative cell growth rate was determined and calculated as described above. The results are expressed as the mean±SD based on three replicates.

For benzalkonium chloride [BAK], the “IC50 (relative cell growth rate)” value (5% FBS) was 0.55 ppm, the “IC50 (relative cell growth rate)” value (10% FBS) was 0.59 ppm and the cytotoxicity (at 0.25 and 0.125 ppm) was “not cytotoxic”. The “cell growth inhibition as compared to the blank control” value (at 5, 2.5, 1, and 0.5 ppm) was “significant cell growth inhibition” and the “dose dependence of the decrease in cell growth” value was “dose-dependent decrease in cell growth”.

In the case of zinc dibutyldithiocarbamate [ZDBC], the “IC50 (relative cell growth rate)” value (5% FBS medium) is reported as 2.0 µg/mL, the “IC50 (relative cell growth rate)” value (10% FBS medium) is reported as 4.5 µg/mL and the “dose dependence of the decrease in cell growth” value is reported as “dose-dependent decrease in cell growth”.
